{
  "source": "paper PMC8523698",
  "about": "“Preclinical characterization of an intravenous coronavirus 3CL protease inhibitor for the potential treatment of COVID19” (Nature Communications, 2021)",
  "key": {"[1]": {"target": "PEDV 3CL^pro (Porcine epidemic diarrhea virus, UniProt P0C6Y4)", "sequence (P0C6Y4 2998-3299)": "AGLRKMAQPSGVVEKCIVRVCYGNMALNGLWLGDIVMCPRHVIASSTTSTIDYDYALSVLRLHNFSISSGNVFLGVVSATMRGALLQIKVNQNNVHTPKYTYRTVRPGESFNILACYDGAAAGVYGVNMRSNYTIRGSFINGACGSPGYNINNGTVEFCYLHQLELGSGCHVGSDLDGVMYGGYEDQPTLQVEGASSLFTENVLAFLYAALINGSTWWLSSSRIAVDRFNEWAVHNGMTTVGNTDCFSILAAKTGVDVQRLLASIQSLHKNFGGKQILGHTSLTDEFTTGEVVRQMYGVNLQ", "assay_type": "biochemical"}, "[2]": {"tested_on": "SARS-CoV-2 Belgium/GHB-03021/2020 strain", "test": "microbe, parasite or virus in culture", "assay_type": "cell-based", "conditions": "Severe acute respiratory syndrome coronavirus 2"}, "[3]": {"target": "T1, MATE2K (Homo sapiens, UniProt Q86VL8)", "T1 construct": "expressed in transfected cells; host or cells: HEK293", "T1 sequence (Q86VL8 1-566 isoform Q86VL8-3)": "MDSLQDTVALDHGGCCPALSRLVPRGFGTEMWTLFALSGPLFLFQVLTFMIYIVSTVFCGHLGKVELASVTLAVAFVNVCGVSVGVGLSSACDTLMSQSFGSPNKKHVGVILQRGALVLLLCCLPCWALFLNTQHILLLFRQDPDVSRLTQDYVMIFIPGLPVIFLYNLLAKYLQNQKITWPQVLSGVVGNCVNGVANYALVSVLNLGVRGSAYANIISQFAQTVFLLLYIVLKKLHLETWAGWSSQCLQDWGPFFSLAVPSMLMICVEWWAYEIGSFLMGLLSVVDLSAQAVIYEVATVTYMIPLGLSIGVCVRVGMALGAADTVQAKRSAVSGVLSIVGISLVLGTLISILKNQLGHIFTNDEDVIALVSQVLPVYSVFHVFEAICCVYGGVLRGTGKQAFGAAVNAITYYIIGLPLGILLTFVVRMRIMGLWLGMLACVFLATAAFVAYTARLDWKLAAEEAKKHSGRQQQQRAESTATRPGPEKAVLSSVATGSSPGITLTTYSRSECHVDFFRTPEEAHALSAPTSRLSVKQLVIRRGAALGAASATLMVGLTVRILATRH", "test": "Transporter inhibition using transfected HEK293 cells", "assay_type": "in vitro ADME", "conditions": "IC50, [14C]Metformin (20 µM)", "description": "For the inhibition studies, HEK293 cells were washed three times with warm transport buffer (Hanks’ balanced salt solution with 20 mM 4-(2-Hydroxyethyl) piperazine-1-ethanesulfonic acid, pH 7.4) followed by incubation with test compounds containing probe substrates: 10 or 20 µM [^14C]-metformin (OCT1, OCT2, MATE1, MATE2K), 0.5 µM [^3H] para-aminohippuric acid (OAT1), 0.1 µM [^3H] estrone-3-sulfate (OAT3) or 0.5 µM rosuvastatin (OATP1B1/1B3). Uptake was terminated by washing cells at least three times with ice-cold transport buffer and then lysing with 0.2 mL of scintillation fluid or 0.225 mL of methanol containing internal standard. For radiolabeled compounds, radioactivity in each sample was quantified by measurement on MicroBeta (Perkin Elmer). For rosuvastatin, cell extracts were dried down under nitrogen and reconstituted in 50:50 (v:v) methanol:water prior to injection onto a LC-MS/MS system. The total cellular protein content was determined by using a BCA Protein Assay Kit (Pierce Biotechnology) following the manufacturer’s protocol. Uptake ratio was then derived as a ratio of accumulation in transfected cells to accumulation in wild-type cells. The half-maximal inhibitory concentration (IC50) for each transporter was calculated in GraphPad Prism."}, "[4]": {"tested_on": "VeroE6-EGFP cells"}, "[5]": {"tested_on": "SARS-CoV-2", "design": "method as in earlier work", "conditions": "preliminary data; read-out: unbound EC90; cited from earlier work"}, "[6]": {"test": "Rat pharmacokinetic study", "conditions": "for AUC(0-inf): AUCinf; for Vd: Vdss"}, "[7]": {"target": "BCRP (Homo sapiens, UniProt Q9UNQ0)", "sequence (Q9UNQ0 whole entry)": "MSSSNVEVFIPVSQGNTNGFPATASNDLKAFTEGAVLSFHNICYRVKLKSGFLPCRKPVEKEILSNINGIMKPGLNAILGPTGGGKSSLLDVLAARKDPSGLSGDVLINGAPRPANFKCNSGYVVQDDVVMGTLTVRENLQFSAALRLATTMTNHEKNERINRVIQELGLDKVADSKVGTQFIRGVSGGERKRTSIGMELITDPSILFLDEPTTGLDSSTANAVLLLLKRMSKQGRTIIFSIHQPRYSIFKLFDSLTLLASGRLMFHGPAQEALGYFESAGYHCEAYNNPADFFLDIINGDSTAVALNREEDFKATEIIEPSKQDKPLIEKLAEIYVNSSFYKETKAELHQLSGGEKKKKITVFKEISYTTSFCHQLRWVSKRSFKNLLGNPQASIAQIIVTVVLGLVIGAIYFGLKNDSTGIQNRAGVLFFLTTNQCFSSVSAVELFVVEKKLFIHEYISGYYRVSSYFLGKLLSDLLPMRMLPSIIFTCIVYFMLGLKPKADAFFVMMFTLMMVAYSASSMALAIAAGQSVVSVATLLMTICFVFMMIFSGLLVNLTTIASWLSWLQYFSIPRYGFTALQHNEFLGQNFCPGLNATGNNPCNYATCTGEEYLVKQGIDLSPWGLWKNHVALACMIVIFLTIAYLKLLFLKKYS", "test": "Transporter inhibition using membrane vesicles", "conditions": "IC50, Rosuvastatin (0.2 µM)"}, "[8]": {"test": "Plasma protein binding by equilibrium dialysis", "conditions": "for fraction unbound at 6 h, 5 uM / fraction unbound at 6 h: human, plasma"}, "[9]": {"tested_on": "CYP3A4/5", "test": "Reversible CYP inhibition in human liver microsomes", "conditions": "CYP 3A4/5 (mdz)"}, "[10]": {"conditions": "male, Wistar-Hannover, rat, plasma, iv, 2 mg/kg, Mean, PF-00835231 active dosed 2mg/kg intravenous"}, "[11]": {"conditions": "male, Wistar-Hannover, rat, plasma, iv, 2 mg/kg, PF-00835231 active dosed 2mg/kg intravenous, individual rats"}, "[12]": {"conditions": "rat, PF-00835231 active dosed 2mg/kg intravenous, individual rats, 2 mg/kg"}},
  "note": "Several values for one entry are separate records, joined by “and”; a condition that tells them apart may be missing. Equal values may be shown once. Read-outs that look alike come from different tables or passages of the source.",
  "data": [
    {"smiles": "COc1cccc2[nH]c(C(=O)N[C@@H](CC(C)C)C(=O)N[C@@H](C[C@@H]3CCNC3=O)C(=O)CO)cc12", "note": "[PF-00835231]", "values": [
      {"measurement": "Ki", "setting": "[1]", "result": "0.3 ± 0.11", "unit": "nM"},
      {"measurement": "EC90", "setting": "[2]", "result": 1600, "unit": "nM"},
      {"measurement": "IC50", "setting": "[3]", "result": 180, "unit": "µM"},
      {"measurement": "IC50", "setting": "[3]; human, HEK293 cells stably transfected with MATE2K, pH 7.4, probe [14C]-metformin (20 µM)", "result": "> 20", "unit": "µM"},
      {"measurement": "CC50", "setting": "[4]; African green monkey", "result": "> 50", "unit": "µM"},
      {"measurement": "CC50", "setting": "[4]; monkey", "result": "> 50", "unit": "µM"},
      {"measurement": "EC90", "setting": "[5]", "result": "< 500", "unit": "nM"},
      {"measurement": "Vdss", "setting": "[6]; Rat, 2mg/kg intravenous, individual animals, 2 mg/kg", "result": "1.02 L/kg and 0.58 L/kg"},
      {"measurement": "AUC(0-inf)", "setting": "[6]; [10]", "result": 1250, "unit": "ng·h/mL"},
      {"measurement": "AUC(0-inf)", "setting": "[6]; [11]", "result": 1230, "unit": "ng·h/mL"},
      {"measurement": "clearance", "setting": "[6]; male, Wistar-Hannover, rat, plasma, iv, 2 mg/kg, Clearance, Mean, PF-00835231 active dosed 2mg/kg intravenous", "result": 27, "unit": "mL/min/kg"},
      {"measurement": "clearance", "setting": "[6]; male, Wistar-Hannover, rat, plasma, iv, 2 mg/kg, Clearance, PF-00835231 active dosed 2mg/kg intravenous, individual rats", "result": 27.1, "unit": "mL/min/kg"},
      {"measurement": "half-life", "setting": "[6]; male, Wistar-Hannover, rat, plasma, iv, 2 mg/kg, Half life, Mean, PF-00835231 active dosed 2mg/kg intravenous", "result": 43.1, "unit": "min"},
      {"measurement": "half-life", "setting": "[6]; male, Wistar-Hannover, rat, plasma, iv, 2 mg/kg, Half life, PF-00835231 active dosed 2mg/kg intravenous, individual rats", "result": 39.2, "unit": "min"},
      {"measurement": "half-life", "setting": "[6]; male, Wistar-Hannover, rat, plasma, iv, 2 mg/kg, Terminal T1/2, rat IV, PF-07304814 […] (n=2, range), PF-00835231 2mg/kg (n=3, ± SD)", "result": "< 120", "unit": "min"},
      {"measurement": "Vd", "setting": "[6]; male, Wistar-Hannover, rat, plasma, iv, 2 mg/kg, 2mg/kg intravenous, individual animals", "result": 0.637, "unit": "L/kg"},
      {"measurement": "Vd", "setting": "[6]; male, Wistar-Hannover, rat, plasma, iv, 2 mg/kg, Mean, 2mg/kg intravenous", "result": 0.746, "unit": "L/kg"},
      {"measurement": "Vd", "setting": "[6]; [10]", "result": 0.746, "unit": "L/kg"},
      {"measurement": "Vd", "setting": "[6]; [11]", "result": 0.637, "unit": "L/kg"},
      {"measurement": "Vd", "setting": "[6]; male, Wistar-Hannover, rat, plasma, iv, 2 mg/kg, Vdss input", "result": 0.75, "unit": "L/kg"},
      {"measurement": "Vd", "setting": "[6]; male, Wistar-Hannover, rat, plasma, iv, 2 mg/kg, rat IV, PF-07304814 […] (n=2, range), PF-00835231 2mg/kg (n=3, ± SD)", "result": "< 1.5", "unit": "L/kg"},
      {"measurement": "clearance", "setting": "[6]; male, Wistar-Hannover, rat, plasma, iv, CL, rat IV, PF-07304814 […] (n=2, range), PF-00835231 2mg/kg (n=3, ± SD)", "result": "27 ± 3.1", "unit": "mL/min/kg"},
      {"measurement": "half-life", "setting": "[6]; male, Wistar-Hannover, rat, plasma, iv, Terminal T1/2, rat IV, PF-07304814 […] (n=2, range), PF-00835231 2mg/kg (n=3, ± SD)", "result": "43.2 ± 7.2", "unit": "min"},
      {"measurement": "Vd", "setting": "[6]; male, Wistar-Hannover, rat, plasma, iv, rat IV, PF-07304814 […] (n=2, range), PF-00835231 2mg/kg (n=3, ± SD)", "result": "0.75 ± 0.24", "unit": "L/kg"},
      {"measurement": "bioavailability", "setting": "[6]; male, Wistar-Hannover, rat, plasma, po, 2 mg/kg, Oral F%, rat, 2mg/kg PO vs IV", "result": "1.4 ± 0.76", "unit": "%"},
      {"measurement": "AUC(0-t)", "setting": "[6]; male, Wistar-Hannover, rat, plasma, po, 5 mg/kg, AUCt, Mean, PF-00835231 5mg/kg PO dose", "result": 12.8, "unit": "ng·h/mL"},
      {"measurement": "Urine Concn", "setting": "[6]; rat urine 0-7 h, PF-00835231 active dosed 2mg/kg intravenous, individual rats, 2 mg/kg", "result": "29200 ng/mL and 3180 ng/mL and 6320 ng/mL"},
      {"measurement": "Urine Concn", "setting": "[6]; rat urine 7-24 h, PF-00835231 active dosed 2mg/kg intravenous, individual rats, 2 mg/kg", "result": "234 ng/mL and 85.6 ng/mL and 368 ng/mL"},
      {"measurement": "AUCt", "setting": "[6]; rat, PF-00835231 5mg/kg PO dose, individual rats, 5 mg/kg", "result": "5.75 ng·h/mL and 18.5 ng·h/mL and 14.1 ng·h/mL"},
      {"measurement": "AUCinf", "setting": "[6]; [12]", "result": "1110 ng·h/mL and 1400 ng·h/mL"},
      {"measurement": "Half life", "setting": "[6]; [12]", "result": "51.4 min and 38.7 min"},
      {"measurement": "Vdss", "setting": "[6]; [12]", "result": "1.02 L/kg and 0.58 L/kg"},
      {"measurement": "clearance", "setting": "[6]; [12]", "result": "30 mL/min/kg and 23.8 mL/min/kg"},
      {"measurement": "Oral F%", "setting": "[6]; rat, 2mg/kg PO vs IV, 2 mg/kg", "result": "< 2", "unit": "%"},
      {"measurement": "IC50", "setting": "[7]", "result": 19.5, "unit": "µM"},
      {"measurement": "Individual fraction unbound", "setting": "[8]; human plasma, 5.0 uM, replicates Day 1-3", "result": "0.474 and 0.429 and 0.385 and 0.458 and 0.463 and 0.507 and 0.437 and 0.428 and 0.477 and 0.486"},
      {"measurement": "fraction unbound at 6 h, 5 uM", "setting": "[8]; pH 7.4, Fraction unbound, Geomean, human plasma, 5.0 uM, n 12", "result": 0.449},
      {"measurement": "fraction unbound at 6 h, 5 uM", "setting": "[8]; pH 7.4, Individual fraction unbound, human plasma, 5.0 uM, replicates Day 1-3", "result": 0.423},
      {"measurement": "fraction unbound at 6 h", "setting": "[8]; pH 7.4, Measured plasma fu / Human plasma fu, human plasma", "result": 0.449},
      {"measurement": "fraction unbound at 6 h", "setting": "[8]; pH 7.4, Unbound fraction fu (%CV), human plasma", "result": 0.449},
      {"measurement": "fraction unbound at 6 h, 5 uM", "setting": "[8]; pH 7.4, fraction unbound Geomean, human plasma, 5.0 uM, n=12", "result": 0.449},
      {"measurement": "fraction unbound at 6 h", "setting": "[8]; pH 7.4, fu, fu,plasma, Simcyp input parameter (User), substrate", "result": 0.449},
      {"measurement": "Percent of Control Activity", "setting": "[9]; 0.214 µM, 30-Minute Preincubation", "result": 105.3, "unit": "%"},
      {"measurement": "Percent of Control Activity", "setting": "[9]; 0.979 µM, 30-Minute Preincubation", "result": 106.9, "unit": "%"},
      {"measurement": "Percent of Control Activity", "setting": "[9]; 2.09 µM, 30-Minute Preincubation", "result": 110.4, "unit": "%"},
      {"measurement": "Percent of Control Activity", "setting": "[9]; 4.48 µM, 30-Minute Preincubation", "result": 94.3, "unit": "%"},
      {"measurement": "Percent of Control Activity", "setting": "[9]; 20.5 µM, 30-Minute Preincubation", "result": 83.5, "unit": "%"},
      {"measurement": "Percent of Control Activity", "setting": "[9]; 20.5 µM, Zero-Minute Preincubation", "result": 117.3, "unit": "%"},
      {"measurement": "Percent of Control Activity", "setting": "[9]; 43.8 µM, 30-Minute Preincubation", "result": 84.8, "unit": "%"},
      {"measurement": "Percent of Control Activity", "setting": "[9]; 93.5 µM, 30-Minute Preincubation", "result": 72.6, "unit": "%"}
    ]}
  ]
}
